Measured values: patent publication US7250414B2, “Diphenylmethyl compounds useful as muscarinic receptor antagonists” (Theravance, Inc., priority 2004, dated 2007)

How the values were obtained:
[1] = system: pilocarpine-evoked salivation; experiment: Inhalation guinea pig salivation assay; format: in vivo
Method: Inhalation Guinea Pig Salivation Assay
Guinea pigs (Charles River, Wilmington, Mass.) weighing 200-350 g were acclimated to the in-house guinea pig colony for at least 3 days following arrival. Test compound or vehicle were dosed via inhalation (IH) over a 10 minute time period in a pie shaped dosing chamber (R&S Molds, San Carlos, Calif.). Test solutions were dissolved in sterile water and delivered using a nebulizer filled with 5.0 mL of dosing solution. Guinea pigs were restrained in the inhalation chamber for 30 minutes. During this time, guinea pigs were restricted to an area of approximately 110 sq. cm. […] Upon completion of nebulization, guinea pigs were evaluated at 1.5, 6, 12, 24, 48, or 72 hrs after treatment.
Guinea pigs were anesthetized one hour before testing with an intramuscular (IM) injection of a mixture of ketamine 43.75 mg/kg, xylazine 3.5 mg/kg, and acepromazine 1.05 mg/kg at an 0.88 mL/kg volume. […] Saliva was collected for 10 minutes, at which point the gauze pad was weighed and the difference in weight recorded to determine the amount of accumulated saliva (in mg). The mean amount of saliva collected for animals receiving the vehicle and each dose of test compound was calculated. […] Results were calculated using result means (n=3 or greater). Confidence intervals (95%) were calculated for each dose at each time point using two-way ANOVA. […]

[2] = target: T1, hM3 muscarinic receptor subtype (Homo sapiens, UniProt P20309); experiment: Radioligand binding assay ([3H]-NMS displacement); conditions: CHO cell membranes, [3H]-NMS at 1 nM, Cheng-Prusoff; read-out: Ki value for the M3 muscarinic receptor subtype
T1 construct: expressed in transfected cells; crude membranes prepared in house
Method: A. Membrane Preparation from Cells Expressing hM1, hM2, hM3 and hM4 Muscarinic Receptor Subtypes
CHO cell lines stably expressing cloned human hM1, hM2, hM3 and hM4 muscarinic receptor subtypes, respectively, were grown to near confluency in medium consisting of HAM's F-12 supplemented with 10% FBS and 250 μg/mL Geneticin. The cells were grown in a 5% CO2, 37° C. incubator and lifted with 2 mM EDTA in dPBS. Cells were collected by 5 minute centrifugation at 650×g, and cell pellets were either stored frozen at −80° C. or membranes were prepared immediately. For membrane preparation, cell pellets were suspended in lysis buffer and homogenized with a Polytron PT-2100 tissue disrupter (Kinematica AG; 20 seconds×2 bursts). […] The protein concentration of the membrane suspension was determined by the method described in Lowry, O. et al., […] 193:265 (1951). […]
Radioligand binding assays were performed in 96-well microtiter plates in a total assay volume of 100 μL. […] Filter plates were rinsed three times with wash buffer (10 mM HEPES) to remove unbound radioactivity. […] The plates were then counted in a PerkinElmer Topcount liquid scintillation counter (PerkinElmer Inc., Wellesley, Mass.). Binding data were analyzed by nonlinear regression analysis with the GraphPad Prism Software package (GraphPad Software, Inc., San Diego, Calif.) using the one-site competition model. […]

T1 sequence (P20309 whole entry): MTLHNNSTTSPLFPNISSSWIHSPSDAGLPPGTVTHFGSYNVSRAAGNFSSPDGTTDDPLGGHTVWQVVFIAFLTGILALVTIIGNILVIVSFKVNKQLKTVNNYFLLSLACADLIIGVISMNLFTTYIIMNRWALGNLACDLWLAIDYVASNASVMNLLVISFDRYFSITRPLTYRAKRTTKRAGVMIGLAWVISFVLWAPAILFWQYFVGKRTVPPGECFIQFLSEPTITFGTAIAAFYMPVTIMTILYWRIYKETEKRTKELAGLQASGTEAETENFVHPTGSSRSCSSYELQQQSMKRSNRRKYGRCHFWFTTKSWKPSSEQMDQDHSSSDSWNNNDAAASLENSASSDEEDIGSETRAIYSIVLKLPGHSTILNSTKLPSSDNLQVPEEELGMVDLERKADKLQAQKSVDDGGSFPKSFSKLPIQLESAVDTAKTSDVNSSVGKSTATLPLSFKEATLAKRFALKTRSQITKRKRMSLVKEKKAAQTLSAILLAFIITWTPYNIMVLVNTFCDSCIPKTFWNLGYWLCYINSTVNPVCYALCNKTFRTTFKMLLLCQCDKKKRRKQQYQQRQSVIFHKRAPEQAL

Row | Ki [2] [nM] | Compound | apparent lung selectivity index (ratio of anti-sialagogue ID50 to bronchoprotective ID50) [1]
1 |  | CNCCc1ccc(CCN2CC[C@@H](C(C(N)=O)(c3ccccc3)c3ccccc3)C2)cc1 [Example 2, 2-((S)-1-{2-[4-(2-Methylaminoethyl)phenyl]ethyl}pyrrolidin-3-yl)-2,2-diphenyl-acetamide] | greater than 15
2 | 110 | Cc1cnc(CNCCc2ccc(CCN3CC[C@@H](C(C(N)=O)(c4ccccc4)c4ccccc4)C3)cc2)cn1 [Example 16, 2-{(S)-1-[2-(4-{2-[(5-methylpyrazin-2-ylmethyl)amino]ethyl}phenyl)ethyl]pyrrolidin-3-yl}-2,2-diphenylacetamide] | 
